# Reference: US8501205B2, “Insect repellent composition” (priority 2006, dated 2013)
# Marks after values point to notes of the source that are not given here.
# How the values were obtained:
# host-seeking mosquitoes = assay: Study A Guatemala field trial, human-landing catch on treated lower legs; type: in vivo, Psorophora varipes, Aedes Ochlerotatus taeniorhynchus
# Text: Study A—Guatemala Study. The following repellent formulations (% by weight) were used: (1) C15: repellent containing the amounts of ingredients described in Example 1—the PMD obtained from acid modification of Coryinbia citriodora oil, CAS: 42822-86-6, purchased from Chemian Technology Ltd under the trademark Citriodiol®; (2)115: repellent containing the amounts of ingredients described in Example 1—the PMD obtained from Coolact® 38D; (3) T20: containing 20 wt % PMD instead of 15%, obtained from Coolact® 38D; (4) positive control: 15% DEET (N,N-diethyl-meta-toluamide, CAS 134-62-3; Sigma-Aldrich Co.) in ethanol; (5) negative control: mixture of 20% mineral oil and ethanol.
# (§1) Study A and B, Both studies were controlled double blind, human-landing catch design. All solutions were placed in unmarked containers labeled by code. On any one night, human volunteers had both lower legs treated with either one of the PMD/LG candidate repellents or a positive or negative control at a rate of 0.002 ml/cm^2 between the ankle and the knee. Volunteers' leg length and circumference were measured to calculate surface area and the correct dose of treatment was measured using a micropipette, and applied using a latex glove to minimize absorption of material onto the hand of the volunteer. During the human-landing catches, the volunteers wore shorts to the knee, work boots, and a loose bug jacket (ProBuy) to ensure that blood-seeking mosquitoes had access only to their lower legs.
# (§2) The designated locations within the field sites were 10 m from each other and a minimum of 20 m from alternate sources of kairomones such as houses and livestock. As insect repellents act over a distance of less than a meter, and the maximum distance of host attraction of a single human to mosquitoes is 10 m,^29 the design eliminates any “relativity effect” where insects choose between two hosts simultaneously. Mosquitoes were collected from the lower legs of the volunteers once they had settled—without the need to wait for biting—by using a mouth aspirator, flashlight, and a collection vessel. Collection vessels were changed each hour to provide hourly measures of repellency. Umbrellas were also provided, to protect the volunteers from any rain showers that might wash away their repellent.
# (§3) All volunteers were experienced at conducting man-landing catches. A form outlining procedure was given to the volunteers to ensure that they had full understanding of the potential risks of a study of this kind. In addition, each was given chloroquine (Guatemala) or Mefloquine (Peru) prophylaxis in accordance with WHO guidelines.^30 Full ethical clearance was obtained from Universidad del Valle, Guatemala (Study A); and from London School of Hygiene and Tropical Medicine Ethics Board and Instituto Nacional de Salud, Peru (Study B).
# Study A. The three repellents and two controls were applied to the five volunteers at 1430 hrs, and man-landing catches were performed at the field site for one hour before and after sunset (1730-1930 hrs), when the evening mosquito biting is at its peak as shown by preliminary man-landing catches. The times chosen allowed an assessment of the protection afforded by the repellent over 5 hours while exposing volunteers to bites for only 2 hours. This helped minimize exposure and risk to the collectors. The study was a balanced 5×5 Latin-square design that required each volunteer to test each treatment five times throughout the study over a period of twenty-five nights. Every evening, each individual was allocated one of five treatments, and sat in one of five allocated positions. Consequently, the volunteers changed position every five days.
# Mosquitoes were maintained overnight and killed by cooling prior to identification the following morning. Data were normalized using natural log ([…]) and analyzed with General Linear Model (GLM) using Minitab 11.0 for Windows. […]
# An. darlingi = details: for 4 hours after application; biting pressure 75 mosquito landings per human-hour; cited from earlier work
# Anopheles darlingi = assay: Study B Peru field trial, human-landing catch, Anopheles darlingi; type: in vivo
# Text: (§4) Study B—Peru Study. Repellent formulations (% by weight) were used: (1) “PMD+LG” containing about 16% PMD as indicated in Example 1—PMD obtained from Coolact® 38D; (2) positive control: 20% DEET (Sigma Aldridge) in ethanol (Sigma-Aldrich Co.); (3) negative control: 20% mineral oil (ExxonMobil Corporation) in ethanol.
# as §1, §2, §3
# (§5) Study B. The repellent and two controls were applied at 1600 hrs, and man-landing collections were performed at the field, between 1800 and 2200 hours, as this is the time of peak An. darlingi activity in the area (Chan, A. unpublished data). The times chosen allowed an assessment of the protection afforded by the repellent over to be made of relative protection of the samples for a period of 6 hours while exposing volunteers to bites for only 4 hours. This helped minimize exposure and risk to the collectors. The volunteers took a 15-minute break between 2000 hrs and 2015 hrs. The study was a 3×3 balanced Latin-square design performed using three volunteers over nine nights, with volunteers changing positions every third night. Due to unforeseen circumstances, one of the volunteers was replaced after 4 nights, and this was factored into the statistical analysis.
# (§6) Mosquitoes were maintained overnight and killed by cooling prior to identification the following morning. Data were normalized using natural log ([…]) and analyzed with General Linear Model (GLM) using Minitab 11.0 for Windows. Further testing of individual variables was performed using Kruskal Wallis, as data could not be sufficiently normalized to use one-way Analysis of Variance (ANOVA) due to low collection numbers on repellent-treated individuals.
# All mosquitoes = assay: Study B Peru field trial, human-landing catch, all mosquitoes; type: in vivo, mosquitoes (86% Anopheles darlingi); details: for % P = percentage protection / AM = arithmetic mean mosquito landings/hour / WM = William's mean mosquito landings/hour: All mosquitoes
# Text: as §4, §1, §2, §3, §5, §6
# [1] = Mean of 4 and 5 hours post application
smiles,measurement,setting,value
"CCN(CC)C(=O)c1cccc(C)c1 [15% DEET, N,N-diethyl-meta-toluamide]",% P = percentage protection,host-seeking mosquitoes; 4 hours post application,94.52%
same,WM = William's mean mosquito landings/hour,host-seeking mosquitoes; 4 hours post application,3.63 mosquito landings/hour
same,AM = arithmetic mean mosquito landings/hour,"host-seeking mosquitoes; 4 hours post application, 0.002 ml/cm^2 on lower legs",6.33 mosquito landings/hour
same,% P = percentage protection,host-seeking mosquitoes; 5 hours post application,87.85%
same,AM = arithmetic mean mosquito landings/hour,host-seeking mosquitoes; 5 hours post application,12.21 mosquito landings/hour
same,WM = William's mean mosquito landings/hour,host-seeking mosquitoes; 5 hours post application,4.87 mosquito landings/hour
same,% P = percentage protection,host-seeking mosquitoes; [1],91.42%
same,AM = arithmetic mean mosquito landings/hour,host-seeking mosquitoes; [1],9.27 mosquito landings/hour
same,WM = William's mean mosquito landings/hour,host-seeking mosquitoes; [1],3.60^c mosquito landings/hour
same,protection from host-seeking mosquitoes,"host-seeking mosquitoes; up to five hours after application, biting pressure 108 mosquitoes per man hour",91%
same,protection,An. darlingi,85%
"CCN(CC)C(=O)c1cccc(C)c1 [20% DEET, N,N-diethyl-meta-toluamide]",% P = percentage protection,Anopheles darlingi; 3 hours post application,56.43%
same,AM = arithmetic mean mosquito landings/hour,Anopheles darlingi; 3 hours post application,13.56 mosquito landings/hour
same,WM = William's mean mosquito landings/hour,Anopheles darlingi; 3 hours post application,9.59 mosquito landings/hour
same,% P = percentage protection,Anopheles darlingi; 4 hours post application,66.53%
same,AM = arithmetic mean mosquito landings/hour,Anopheles darlingi; 4 hours post application,18.33 mosquito landings/hour
same,WM = William's mean mosquito landings/hour,Anopheles darlingi; 4 hours post application,14.96 mosquito landings/hour
same,% P = percentage protection,Anopheles darlingi; 5 hours post application,62.21%
same,AM = arithmetic mean mosquito landings/hour,Anopheles darlingi; 5 hours post application,12.89 mosquito landings/hour
same,WM = William's mean mosquito landings/hour,Anopheles darlingi; 5 hours post application,10.59 mosquito landings/hour
same,% P = percentage protection,Anopheles darlingi; 6 hours post application,51.41%
same,AM = arithmetic mean mosquito landings/hour,Anopheles darlingi; 6 hours post application,17.22 mosquito landings/hour
same,WM = William's mean mosquito landings/hour,Anopheles darlingi; 6 hours post application,13.59 mosquito landings/hour
same,% P = percentage protection,Anopheles darlingi; Mean of 3-6 hours,61.40%
same,AM = arithmetic mean mosquito landings/hour,Anopheles darlingi; Mean of 3-6 hours,15.00 mosquito landings/hour
same,WM = William's mean mosquito landings/hour,Anopheles darlingi; Mean of 3-6 hours,12.07^c mosquito landings/hour
same,average protection,All mosquitoes; 6 hours after application / over the duration of the trial,62%
same,% P = percentage protection,All mosquitoes; 3 hours post application,65.77%
same,AM = arithmetic mean mosquito landings/hour,All mosquitoes; 3 hours post application,15.22 mosquito landings/hour
same,WM = William's mean mosquito landings/hour,All mosquitoes; 3 hours post application,10.59 mosquito landings/hour
same,% P = percentage protection,All mosquitoes; 4 hours post application,68.12%
same,AM = arithmetic mean mosquito landings/hour,All mosquitoes; 4 hours post application,19.78 mosquito landings/hour
same,WM = William's mean mosquito landings/hour,All mosquitoes; 4 hours post application,16.12 mosquito landings/hour
same,% P = percentage protection,All mosquitoes; 5 hours post application,63.80%
same,AM = arithmetic mean mosquito landings/hour,All mosquitoes; 5 hours post application,13.89 mosquito landings/hour
same,WM = William's mean mosquito landings/hour,All mosquitoes; 5 hours post application,11.68 mosquito landings/hour
same,% P = percentage protection,All mosquitoes; 6 hours post application,52.08%
same,AM = arithmetic mean mosquito landings/hour,All mosquitoes; 6 hours post application,18.44 mosquito landings/hour
same,WM = William's mean mosquito landings/hour,All mosquitoes; 6 hours post application,15.28 mosquito landings/hour
same,% P = percentage protection,All mosquitoes; Mean of 3-6 hours,63.63%
same,AM = arithmetic mean mosquito landings/hour,All mosquitoes; Mean of 3-6 hours,16.83 mosquito landings/hour
same,WM = William's mean mosquito landings/hour,All mosquitoes; Mean of 3-6 hours,13.30^c mosquito landings/hour
